From ChEMBL document CHEMBL1201862, “PubChem BioAssay data set” (2004)
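Results reflect a 48-hour exposure of cells in 96-well plates to compound at five concentrations. At the GI50, growth is halved.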 Calls of active or inactive are those of the source. Cut-off read from the data, not from the text of the source: active = GI50 up to about 1.1 µM and inactive = higher.

How the values were obtained:
Assay in all cases: NCI tumour cell line growth inhibition, 48 h
786-0 = test system: 786-0
A498 = test system: A498
A549 = test system: A549
ACHN = test system: ACHN
CAKI-1 = test system: CAKI-1
CCRF-CEM = test system: CCRF-CEM
COLO 205 = test system: COLO 205
DLD-1 = test system: DLD-1
DMS-114 = test system: DMS-114
DMS-273 = test system: DMS-273
EKVX = test system: EKVX
HCT-116 = test system: HCT-116
HCT-15 = test system: HCT-15
HL-60 = test system: HL-60
HOP-18 = test system: HOP-18
HOP-62 = test system: HOP-62
HOP-92 = test system: HOP-92
HT-29 = test system: HT-29
IGROV-1 = test system: IGROV-1
K562 = test system: K562
KM-20L2 = test system: KM-20L2
KM12 = test system: KM12
LOX IMVI = test system: LOX IMVI
LXFL 529 = test system: LXFL 529
M14 = test system: M14
M19-MEL = test system: M19-MEL
Malme-3M = test system: Malme-3M
NCI-H226 = test system: NCI-H226
NCI-H460 = test system: NCI-H460
NCI-H522 = test system: NCI-H522
OVCAR-3 = test system: OVCAR-3
OVCAR-4 = test system: OVCAR-4
OVCAR-5 = test system: OVCAR-5
OVCAR-8 = test system: OVCAR-8
RPMI-8226 = test system: RPMI-8226
RXF 393 = test system: RXF 393
SF-268 = test system: SF-268
SF-295 = test system: SF-295
SF-539 = test system: SF-539
SK-MEL-28 = test system: SK-MEL-28
SK-MEL-2 = test system: SK-MEL-2
SK-MEL-5 = test system: SK-MEL-5
SK-OV-3 = test system: SK-OV-3
SN12C = test system: SN12C
SNB-19 = test system: SNB-19
SNB-75 = test system: SNB-75
SNB-78 = test system: SNB-78
SR = test system: SR
SW-620 = test system: SW-620
TK-10 = test system: TK-10
U-251 = test system: U-251
UACC-257 = test system: UACC-257
UACC-62 = test system: UACC-62
UO-31 = test system: UO-31
HCC 2998 = test system: HCC 2998
MOLT-4 = test system: MOLT-4
NCI-H23 = test system: NCI-H23

SMILES: Cc1ccc(S(=O)(=O)OCCn2cnc3nc(NC(=O)c4ccccc4)[nH]c(=O)c32)cc1
- GI50 (786-0): > 100 µM (inactive)
- GI50 (A498): > 100 µM (inactive)
- GI50 (A549): > 100 µM (inactive)
- GI50 (ACHN): > 100 µM (inactive)
- GI50 (CAKI-1): > 100 µM (inactive)
- GI50 (CCRF-CEM): > 100 µM (inactive)
- GI50 (COLO 205): > 100 µM (inactive)
- GI50 (DLD-1): > 100 µM (inactive)
- GI50 (DMS-114): > 100 µM (inactive)
- GI50 (DMS-273): > 100 µM (inactive)
- GI50 (EKVX): > 100 µM (inactive)
- GI50 (HCT-116): > 100 µM (inactive)
- GI50 (HCT-15): > 100 µM
- GI50 (HL-60): > 100 µM (inactive)
- GI50 (HOP-18): > 100 µM (inactive)
- GI50 (HOP-62): > 100 µM (inactive)
- GI50 (HOP-92): > 100 µM (inactive)
- GI50 (HT-29): > 100 µM (inactive)
- GI50 (IGROV-1): > 100 µM (inactive)
- GI50 (K562): > 100 µM (inactive)
- GI50 (KM-20L2): > 100 µM (inactive)
- GI50 (KM12): > 100 µM (inactive)
- GI50 (LOX IMVI): > 100 µM (inactive)
- GI50 (LXFL 529): 94.6 µM (inactive)
- GI50 (M14): > 100 µM (inactive)
- GI50 (M19-MEL): > 100 µM (inactive)
- GI50 (Malme-3M): > 100 µM (inactive)
- GI50 (NCI-H226): > 100 µM (inactive)
- GI50 (NCI-H460): > 100 µM (inactive)
- GI50 (NCI-H522): 52.6 µM (inactive)
- GI50 (OVCAR-3): > 100 µM (inactive)
- GI50 (OVCAR-4): > 100 µM (inactive)
- GI50 (OVCAR-5): > 100 µM (inactive)
- GI50 (OVCAR-8): > 100 µM (inactive)
- GI50 (RPMI-8226): > 100 µM (inactive)
- GI50 (RXF 393): > 100 µM (inactive)
- GI50 (SF-268): > 100 µM (inactive)
- GI50 (SF-295): > 100 µM (inactive)
- GI50 (SF-539): > 100 µM (inactive)
- GI50 (SK-MEL-28): > 100 µM (inactive)
- GI50 (SK-MEL-2): > 100 µM (inactive)
- GI50 (SK-MEL-5): > 100 µM (inactive)
- GI50 (SK-OV-3): > 100 µM (inactive)
- GI50 (SN12C): > 100 µM (inactive)
- GI50 (SNB-19): > 100 µM (inactive)
- GI50 (SNB-75): > 100 µM (inactive)
- GI50 (SNB-78): > 100 µM (inactive)
- GI50 (SR): > 100 µM (inactive)
- GI50 (SW-620): > 100 µM (inactive)
- GI50 (TK-10): > 100 µM (inactive)
- GI50 (U-251): > 100 µM (inactive)
- GI50 (UACC-257): > 100 µM (inactive)
- GI50 (UACC-62): > 100 µM (inactive)
- GI50 (UO-31): > 100 µM (inactive)

SMILES: CCc1cc(Cc2cc(Cl)c(NC(=O)C(=O)C3NC(=O)NC3=O)c(CC)c2)cc(Cl)c1NC(=O)C(=O)C1NC(=O)NC1=O (centres undefined)
- GI50 (786-0): 42.7 µM (inactive)
- GI50 (A498): > 100 µM (inactive)
- GI50 (A549): 75 µM (inactive)
- GI50 (ACHN): 94.4 µM (inactive)
- GI50 (CAKI-1): > 100 µM (inactive)
- GI50 (CCRF-CEM): 34.5 µM (inactive)
- GI50 (COLO 205): 57.8 µM (inactive)
- GI50 (DMS-114): 26.9 µM (inactive)
- GI50 (DMS-273): 20.4 µM (inactive)
- GI50 (EKVX): > 100 µM (inactive)
- GI50 (HCC 2998): 42.8 µM (inactive)
- GI50 (HCT-116): 31.3 µM (inactive)
- GI50 (HCT-15): 17.3 µM
- GI50 (HL-60): 35.2 µM (inactive)
- GI50 (HOP-18): > 100 µM (inactive)
- GI50 (HOP-62): > 100 µM (inactive)
- GI50 (HOP-92): > 100 µM (inactive)
- GI50 (HT-29): 26.1 µM (inactive)
- GI50 (IGROV-1): > 100 µM (inactive)
- GI50 (K562): 37.2 µM (inactive)
- GI50 (KM-20L2): 33.9 µM (inactive)
- GI50 (KM12): > 100 µM (inactive)
- GI50 (LOX IMVI): 31.8 µM (inactive)
- GI50 (LXFL 529): 45.1 µM (inactive)
- GI50 (M14): 48.5 µM (inactive)
- GI50 (M19-MEL): 51.3 µM (inactive)
- GI50 (MOLT-4): 66.5 µM (inactive)
- GI50 (Malme-3M): > 100 µM (inactive)
- GI50 (NCI-H226): > 100 µM (inactive)
- GI50 (NCI-H23): 26.6 µM (inactive)
- GI50 (NCI-H460): 36.1 µM (inactive)
- GI50 (OVCAR-3): 36.8 µM (inactive)
- GI50 (OVCAR-4): > 100 µM (inactive)
- GI50 (OVCAR-5): > 100 µM (inactive)
- GI50 (OVCAR-8): 21.4 µM (inactive)
- GI50 (RPMI-8226): 26.4 µM (inactive)
- GI50 (RXF 393): 22.9 µM (inactive)
- GI50 (SF-268): 20.7 µM (inactive)
- GI50 (SF-295): 51.4 µM (inactive)
- GI50 (SF-539): 35.1 µM (inactive)
- GI50 (SK-MEL-28): 37.5 µM (inactive)
- GI50 (SK-MEL-2): > 100 µM (inactive)
- GI50 (SK-MEL-5): > 100 µM (inactive)
- GI50 (SK-OV-3): 33.9 µM (inactive)
- GI50 (SN12C): 50.8 µM (inactive)
- GI50 (SNB-19): 36.9 µM (inactive)
- GI50 (SNB-75): 30.9 µM (inactive)
- GI50 (SNB-78): 75.7 µM (inactive)
- GI50 (SR): 37.2 µM (inactive)
- GI50 (SW-620): 8.47 µM (inactive)
- GI50 (TK-10): > 100 µM (inactive)
- GI50 (U-251): 17.1 µM (inactive)
- GI50 (UACC-257): 30.6 µM (inactive)
- GI50 (UACC-62): 46.7 µM (inactive)
- GI50 (UO-31): > 100 µM (inactive)
